Where two headings read alike, the source gives them in different places.

In assay [1] the test system is PAF induced elastase release in human neutrophils. Put plainly: PAF induced exocytosis (elastase assay). The format is cell-based. To be noted: for inhibitory activity in the PAF induced exocytosis model: in concentrations around the IC50 of SQDG; for IC50: 10 min, human leucocytes, 37° C., mean of 2-4 experiments in duplicate, read-out: IC50, inhibition of PAF induced elastase release. The protocol: In this test, which is also called the elastase assay, the effect of the extracts on inhibiting the exocytosis induced by PAF was examined. This model was used to guide the fractionation of the extracts or isolated compounds.
Cell preparation: Peripheral blood anti-coagulated with heparin was obtained from healthy volunteers at the University Hospital (in Uppsala, Sweden). After sedimentation with 10% Dextran T-500 (Pharmacia Fine Chemicals) for 30 min at 20° C. the supernatant was removed and centrifuged at 200×g for 30 min. The sediments were treated with one volume of ice-cold water for 21 s followed by the addition of 9 volumes of Mg^2+ and Ca^2+ free PBS in order to lyse the remaining erythrocytes. After centrifugation (200×g for 10 min at 4° C.) the leucocytes were suspended in PBS (containing Mg^2+ and Ca^2+ and Cytochalasin B, Serva, 5 μg/ml) at a concentration of 10-30×10^6 cells/ml.
The assay was performed as described by Tuominen et al., Planta Medica 58, 306-310 (1992). In short leucocytes were incubated at 37° C. in PBS containing 2.5% BSA together with SAAVNA (N-succinyl-L-alanyl-L-alanyl-L-valine-p-nitroanilide, Bachem), the inhibitor in different concentrations or the vehicle (max. 0.1% DMSO) and PAF (Bachem) for 10 min. Blank tubes without PAF were run in parallel. The reaction was stopped by the addition of 2% citric acid and after the centrifugation, the samples were measured in a UV spectrophotometer at 405 nm. The absorbance of the corresponding blank tube was subtracted from the sample and the inhibition of PAF induced elastase release was calculated as the […] in absorbance as compared to the vehicle. The samples were analyzed as 4-5 concentrations ranging from 10^-3 M to 10^-7 M. They were dissolved in 10% DMSO (the isolated compound) or cyclodextrin (BN 52021, used as a reference) and then diluted with the buffer. The final concentration of DMSO or cyclodextrin never exceeded 0.1%.
(§1) The PAF induced exocytosis model described above is used for screening for PAF receptor antagonists since it is a rapid, reproducable and reliable so called functional assay for PAF. However, a number of other actions, like elastase inhibition or membrane stabilisation, would also result in an inhibitory effect in the model which consequently is not exclusive for PAF receptor antagonism. To elucidate if SQDG acts through PAF receptor antagonism in the neutrophil, a receptor binding model using [3H]PAF as the radioligand was used.

A further assay deals with tumour promotion. As to conditions: Chem. Pharm. Bull. 41 (9), 1664-1666, 1993; cited from earlier work.
For assay [2], the system named is leukotriene B4 synthesis in human leucocytes. As to conditions: cited from earlier work.
The target in assay [3] is T1, PAF receptor (Homo sapiens, UniProt P25105).
T1 construct: endogenous in cells; host or cells: human polymorphonuclear leukocytes (intact cells from concentrated suspensions of human leukocytes)
The assay can be described thus: [3H]PAF receptor binding assay. As to conditions: human polymorphonuclear leukocytes, 120 min, 20° C., pH 7.0, 0.35-0.40 nM [3H]PAF; mean of 2-4 experiments in triplicate; read-out: IC50, displacement of [3H]PAF binding.
From the text: as §1
Cell preparation: For the receptor binding experiments the cells were prepared in the same way as described above except that concentrated suspensions of human leukocytes in a CDP-adenine solution were used and in the final step the cells were suspended in the incubation buffer and the cell count was adjusted to 3.1×10^6 cells/ml.
[^3 H]PAF (C18; 1-O-[^3 H]octadecyl-2-acetyl-sn-3-phosphocholine; Amersham, England) receptor binding was studied in human polymorphonuclear leukocytes (2.5×10^6 cells/ml) using a method recently reevaluated by us (Vasange et al., in press, 1996). Incubations were performed for 120 min at 20° C. in a total volume of 1.0 ml containing […] 25 mM Tris HCl, 130 mM NaCl, 5.5 mM KCl, 1.4 mM CaCl2, 0.7 mM MgCl2, 10 mM glucose, 0.5% BSA and 0.35-0.40 nM [^3 H]PAF. Final pH was 7.0 at the incubation temperature used. Non-specific binding was determined with 1 μM C16-PAF (Bachem, Switzerland). The incubation contents were rapidly filtered by vacuum over Whatman GF/C glass-fibre filters using a 12 well Skatron Cell Harverster (Skatron A/S, Norway) and washed with 3×2 ml incubation buffer containing 0.1% BSA. The filtration took less than 15 s. Filters were also pre-soaked with incubation buffer containing 0.1% BSA. Following filtration, the filters were dried in an oven at 70° C. for 30 min and equilibrated for two hours in the scintillation vials before counting in a Packard scintillator at an efficiency of 55%. […]
In general terms: Loss of bound radioactivity is the signal in a displacement assay; it reports binding, not function.

In assay [4] the test system is carrageenan induced rat paw oedema. The assay can be described thus: Rat paw oedema induced by carrageenan. The format is in vivo, rat (Spraque Dawley). To be noted: Na-salicylate 200 mg/kg (positive control), p < 0.0005.
Description: The most commonly used inducer is carrageenan which is injected to the hind paw of male Spraque Dawley rats.
Several tests were performed with the methanolic Calaguala extract which was applied orally in doses 500-2000 mg/kg. As positive control the cyclo-oxygenase inhibitor Na-salicylate (200 mg/kg) was used.
The significancies were calculated using Students t-test (one tailed).
In assay [5] the test system is PAF receptor. To be noted: cited from earlier work.
Assay [6] deals with oedema induced by carrageenan potentiated by PAF. As to conditions: rat, in vivo; cited from earlier work.
Assay [7] relates to ethyl phenyl propiolate (EPP) induced rat ear oedema. The assay can be described thus: Rat ear oedema (EPP induced). The format is in vivo. As to conditions: mepyramine 1 μg/ear (positive control), 2 hours, 6 ears, p<0.01. On the procedure: The rat ear oedema test is aimed to be used for detection of drugs with topical anti-inflammatory activity. It is based on the work by Tonelli et al., Endocrinology 77, 625-634, 1965, but instead of using the carcinogenic croton oil as induced, ethyl phenyl propiolate (EPP) is applied topically on the rat ears. The oedema develops rapidly (about 30 minutes) and starts to decline after two hours. Several measurements can be made by using a special measuring device and the values obtained with application of both EPP and the drug to be investigated are compared to values obtained with EPP alone.
The mechanism of the EPP induced oedema is not completely understood but it is known that compounds with broad anti-inflammatory action, like steroidal anti-inflammatory drugs, are active in this assay. The oedema can also be induced by other agents, such as arachidonic acid, and in that specific case the oedema is believed to develop through the action of the […], inflammatory mediators, leukotrienes. They can also contribute to the EPP oedema.
The Calaguala methanolic extract was tested in this model on several occasions. […]
The thickness of ears is measured after 2 hours. […] The significance of the values obtained was determined by using Students t-test (one tailed analysis). […]
The thickness of the ears was measured after 2 hours. […]

T1 sequence (P25105 whole entry): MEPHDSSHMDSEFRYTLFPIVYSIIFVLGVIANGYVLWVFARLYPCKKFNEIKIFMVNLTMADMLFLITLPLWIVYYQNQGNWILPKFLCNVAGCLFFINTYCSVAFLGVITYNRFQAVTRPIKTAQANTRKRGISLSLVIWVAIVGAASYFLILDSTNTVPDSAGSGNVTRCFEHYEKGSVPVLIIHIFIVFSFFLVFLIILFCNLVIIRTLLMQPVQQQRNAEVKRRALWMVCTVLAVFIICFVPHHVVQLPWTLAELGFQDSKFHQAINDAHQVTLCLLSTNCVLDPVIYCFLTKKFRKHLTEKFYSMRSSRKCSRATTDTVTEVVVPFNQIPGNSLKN

In the case of monogalactosyldiacylglycerol [MGDG], in assay [1], the “inhibitory activity in the PAF induced exocytosis model” value is reported as “no inhibitory activity”. Besides, the “inhibition of tumour promotion compared with SQDG” value in the assay on tumour promotion is recorded as “inhibit tumour promotion more intensely than SQDG”.

For `CCCCCCCC/C=C\CCCCCCCC(=O)O` [oleic acid], the “inhibition of leukotriene B4 synthesis” value in assay [2] is listed as “comparable inhibitory patterns”.

On to `CC/C=C\C/C=C\C/C=C\CCCCCCCC(=O)O` [linolenic acid], for which the “inhibition of leukotriene B4 synthesis” value in assay [2] was “inhibitory activity”.

`CCCCCCCCCCCCCCCC(=O)OC[C@H](CO[C@H]1O[C@H](CS(=O)(=O)O)[C@@H](O)[C@H](O)[C@H]1O)OC(=O)CCCCCCCCCCCCCCC` [SQDG of the formula III, 1,2-O,O-dipalmitoyl-[6'-sulpho-α-D-quinovopyranosyl(1'→3)]-sn-glycerol]: the IC50 (commonly the concentration that gives 50% inhibition) in assay [1] (Neutrophil) amounted to 10 µM; at PAF receptor [3], 2 µM.

Turning to `O=C(O)c1ccccc1O` [Na-salicylate], the “Mean decrease in oedema (Table 4)” value in assay [4] came out at 43%.

In the case of `CC1C(=O)OC2C(O)C34C5CC(C(C)(C)C)C36C(OC(=O)C6O)OC4(C(=O)O5)C12O` (stereo not drawn) [BN 52021], in the assay with PAF receptor [5], the “anti-inflammatory properties in several in vivo and in vitro models” value is listed as “anti-inflammatory properties”. For the same compound, the values for the IC50 (in assay [1]; on PAF receptor [3]) were 80 µM and 25 µM, respectively. The “effect on PAF enhancement of carrageenan induced oedema” value in assay [6] is reported as “capable of abolishing this enhancement”.

Take `CCCCC/C=C\C/C=C\CCCCCCCC(=O)O` [linoleic acid]: the “inhibition of leukotriene B4 synthesis” value in assay [2] was “inhibitory activity”.

Regarding digalactosyldiacylglycerol [DGDG], the “inhibitory activity in the PAF induced exocytosis model” value in assay [1] is “no inhibitory activity”. Further, the “inhibition of tumour promotion compared with SQDG” value in the assay with tumour promotion is “inhibit tumour promotion more intensely than SQDG”.

Turning to `CCCCC/C=C\C/C=C\C/C=C\C/C=C\CCCC(=O)O` [arachidonic acid], the “inhibition of leukotriene B4 synthesis” value in assay [2] was “inhibitory activity”.

`COc1ccc(CN(CCN(C)C)c2ccccn2)cc1` [Mepyramin]: the “Mean decrease in oedema (ear thickness, Table 2)” value in assay [7] is 44%.

On to `COc1ccc(NC(=S)N2CCc3c(sc4c3C(c3ccccc3Cl)=NCc3nnc(C)n3-4)C2)cc1` [BN 50730], for which the “PAF antagonistic activity in vitro (compared with BN 52021)” value in the assay on PAF receptor [5] (Guinot 1994) is reported as “several ten-folds more potent”. The IC50 on PAF receptor [3] is 0.04 µM.

The record behind these values is patent US6124266A, “Sulpholipid composition and methods for treating skin disorders” (Scotia Lipid Teknik AB, priority 1996, dated 2000).
